Experiment [1] deals with Plasmid DNA [pGEM 3Zf(−), 3197 kp]. In words: Agarose gel electrophoresis of plasmid DNA damage. It counts as biochemical, Escherichia Coli. As to conditions: cisplatin alone, up to 3.0 mM. The text has this: The gel electrophoresis was used for quantitative measurements of plasmid DNA damage, characterizing single-strand breaks (SSBs), double-strand breaks (DBSs) and crosslinks (CLs). We also used the γH2AX DNA damage assay (Invitrogen) to detect DSBs of genomic DNA in cancer cells. Briefly, DNA damaging radicals induce phosphorylation of histone variant H2AX (Ser139) forming DNA foci at the site of DNA DSBs. Phosphorylated H2AX aids in the recruitment of proteins responsible for DSB repair.
Aliquots equivalent to 96 ng DNA were removed from the solutions for gel electrophoresis. All aliquots were analyzed with a standard agarose gel electrophoresis method, namely, on 1% neutral TAE agarose gel in TAE running buffer. The gel was prestained with 1 μg/ml ethidium bromide.

Experiment [2] deals with HeLa (cervical cancer) cells. Kind of experiment: APO-BrdU TUNEL DNA fragmentation assay (flow cytometry) in HeLa cells. It counts as cell-based, human. The note with it: for cells with DNA fragmentation (BrdU-positive): 48 h. On the technique in general: In flow cytometry, cells or beads pass a laser one at a time.
Procedure: DNA fragmentation was detected using a standard apoptosis assay, APO-BrdU TUNEL, which utilizes the fact that DNA strand breaks expose a large number of 3′-OH ends, which act as a starting point for terminal deoxynucleotidyl transferase (TdT) to add deoxyribonucleotides. The break sites are labeled by the addition of BrdUTP in the presence of the TdT enzyme. An anti-BrdU antibody conjugated with a fluorescent molecule is added to detect the strand breaks by measuring their fluorescence intensities using flow cytometry. The cell cycle distribution can also be detected simultaneously from the ordinate axis of the generated dot plot (with the BrdU-content on the y-axis), where the events with fluorescence intensity above the background indicate the cells with fragmented DNA (within upper box).
Cells were cultured in 25 cm^2 flasks (˜8×10^7 cells/flask) for 24 h. The culture medium was replaced by new medium and incubated for 48 h with varying drug concentrations. Both floating and adherent cells were harvested by trypsinization and fixed using 1% paraformaldehyde for 30 minutes. Cells were then permeabilized using 70% ice-cold ethanol for at least 24 h at −20° C. Samples were prepared for DNA fragmentation measurements using the APO-BrdU DNA Fragmentation Assay (Invitrogen). To label the DNA, ethanol was removed and cells were resuspended in 50 μL of TUNEL reaction buffer containing terminal deoxynucleotidyl transferase and BrdUTP for 1 h at 37° C., shaking every 15 min. After overnight room temperature incubation, the cells were then incubated with Alexa Fluor 488-conjugated BrdUTP-antibody for 30 min at room temperature. Cells were also stained with propidium iodide (5 μg/mL) and incubated with RNase A for 30 min at room temperature to determine the total cellular DNA content. Samples were then analyzed by a Becton-Dickinson FACSVantage SE flow cytometer in pulse processing mode (10 000 cells per sample). Computational analyses were performed using FCS Express software (De Novo Software, Los Angeles, Calif.) to obtain FL1-H versus FL2-A dot plots (log versus linear, respectively), gating on front scatter (FSC) versus side scatter (SSC) to eliminate debris, as well as FL2-A versus FL2-W to eliminate doublets. Experiments were performed independently at least 3 times
DNA fragmentation was measured by using the APO-BrdU TUNEL assay.
Experiment [3] has as its system NIH-OVCAR-3 (HTB-161) cisplatin-resistant human ovarian cancer cells. Kind of experiment: APO-BrdU TUNEL DNA fragmentation assay (flow cytometry) in HTB-161 cells. Format: cell-based.
Procedure: The method based on terminal deoxyribonucleotidyl transferase (TdT)-mediated dUTP nick-end labelling was used to determine the cell apoptosis. […] DNA fragmentation was measured by using the APO-BrdU TUNEL assay. […] After trypsinized, the cells were washed with PBS, were processed for labeling with the deoxythymidine analog 5-bromo-2′-deoxyuridine 5′-triphosphate (BrdUTP), and were incubated with an Alexa Fluor 488 dye-labeled anti-BrdU antibody and propidium iodide by the use of an APO-BrdU™ TUNEL Assay Kit (Invitrogen) as per manufacturer's protocol. The labeled cells were analyzed by flow cytometry.
Experiment [4] shares this test system. In words: Cell cycle analysis by flow cytometry in HTB-161 cells. It counts as cell-based. As to conditions: cisplatin alone or with 100 μM TMPD, 24 h. On the procedure: HTB-161 cells were plated at a density of 2×10^5 per well on six-well plates. […] The cells were trypsinized, washed twice with chilled PBS, and centrifuged. The cell pellet was resuspended in 70% ethanol at −20° C. overnight. The cells were centrifuged at 1,000 rpm for 5 min; the pellet was washed twice with chilled PBS, suspended in 500 μL PBS, and incubated with RNase (20 μg/mL final concentration) at 25° C. for 30 min and with propidium iodide (50 μg/mL final concentration) for an additional 30 minutes. The cells were analyzed by flow cytometry. Flow cytometry was done with a FACS vantage SE (Becton Dickinson). A minimum of 10,000 cells per sample were counted and the DNA histograms were further analyzed by using FCS Express software for cell cycle analysis.

In experiment [5] the test system is HeLa (cervical cancer) cells. Kind of experiment: MTT cell survival assay in HeLa cells. It counts as cell-based, human. On the technique in general: Tetrazolium assays rely on reduction of a dye to a coloured formazan, in cell work by metabolically active cells.
Procedure: Thus, appropriate doses of the molecular promoters were selected by initially screening for toxicity. […] The viability of cells was measured by MTT assay, one of the most commonly used cell viability assays. This method involves the conversion of MTT (3-(4,5-dimethylthiazol-2-yl)-2,5-diphenyltetrazolium bromide) to an insoluble formazan by metabolically-active cells (live cells). Using a solubilizing agent, the formazan is dissolved and its absorbance measured, giving indication to the number of cells that survive.
Cells were cultured in 96-well plates (5×10^3 cells/well) for 24 h. The culture medium was replaced by new culture medium and incubated for 24 h with varying drug concentrations. After the drug treatment, cells were replaced with new medium containing 1.2 mM MTT (Sigma) and incubated for 4 h. The medium was then removed and the formazan crystals solubilized by 100 μL DMSO. The surviving fraction was determined by measuring the absorbance at 540 nm using a Multiskan Spectrum UV/Vis microplate reader (Thermo Scientific), which is directly proportional to the number of viable cells.
The subject of experiment [6] is NIH-OVCAR-3 (HTB-161) cisplatin-resistant human ovarian cancer cells. Kind of experiment: MTT cell viability assay in cisplatin-resistant HTB-161 cells. The note with it: for effect of combination with cisplatin on viability and drug resistance: cisplatin combined with electron donor (100 μM TMPD). Format: cell-based.
Procedure: Briefly, HTB-161 cells were plated at a density of 7×10^3 cells/well in 96-well plates. […] After incubation for specified times at 37° C. in a humidified incubator, 20 μL of MTT (5 mg/mL in PBS) were added to each well, and cells were incubated for a further 4 h. After removal of the medium, 100 μL DMSO was added to each well. The absorbance was recorded on a microplate reader at the wavelength of 540 nm.

Molecules are shown by their SMILES. “Also recorded” adds a separate entry of the source.

Consider `N.N.[Cl][Pt][Cl]` [cisplatin, cis-diamminedichloroplatinum(II)], for which, in experiment [1], the “DNA strand breaks in plasmid DNA” value is “no SSBs and DSBs but intrastrand cross links only; also recorded: intrastrand cross links only, with no SSBs or DSBs”. Also, the “cells with DNA fragmentation (BrdU-positive)” value came to 9% in experiment [2] (10 μM CDDP without or with 100 μM TMPD), 6% in experiment [2] (25 μM CDDP without or with 100 μM TMPD) and 38% in experiment [2] (50 μM CDDP without or with 100 μM TMPD). In experiment [2] (HeLa cells, CDDP as single agent (lower doses) or with TMPD), the cell cycle arrest entry is “accumulate in the G2/M phase”. Also, the “DNA fragmentation (BrdU positive cells)” value in experiment [3] (50 μM cisplatin without or with 100 μM TMPD) is recorded as 3.61%. Further, in experiment [4], the “distribution of cells in the cell cycle” value is “accumulation of cells in the G1 phase”. Also, the “killing of HeLa cells” value in experiment [5] (10 and 20 μM cisplatin alone) is listed as 20%. For the same molecule, the cell survival rates result in experiment [5] (CDDP alone, 24 h) was “decreased the cell survival rates in a dose-dependent manner”. Besides, the “resistance of HTB-161 cells to cisplatin” value in experiment [6] (cisplatin alone, 200-300 uM) is on record as “strong resistance”.

With `CC1(C)C(/C=C/C=C/C=C/C=C2\N(CCCCS(=O)(=O)[O-])c3ccc4ccccc4c3C2(C)C)=[N+](CCCCS(=O)(=O)[O-])c2ccc3ccccc3c21.[Na+]` [ICG, Indocyanine green], the “toxicity of ICG alone (cell survival)” value in experiment [5] (ICG alone, up to 200 μM) is on record as “no significant toxicity”. The “effect of combination with cisplatin on viability and drug resistance” value in experiment [6] is given as “rendered cisplatin-resistant tumor cells almost completely sensitive”.

For `CN(C)c1ccc(N(C)C)cc1` [TMPD, N,N, N′,N′-tetramethyl-p-phenylene diamine], in experiment [2] (100 μM TMPD alone), the “cells with DNA fragmentation (BrdU-positive)” value amounted to 2%. Also, the “DNA fragmentation (BrdU positive cells)” value in experiment [3] (100 μM TMPD alone) was 0.04%. Also, the “toxicity of TMPD alone (cell survival / viability)” value in experiment [5] (TMPD alone, up to 100 μM) is recorded as “very mild toxicity; also recorded: only slightly decreased the cell viability; also recorded: no significant toxicity”. In addition, the cell viability entry in experiment [6] (100 μM TMPD alone) is recorded as “slight decrease of the cell viability”. Also, the “effect of combination with cisplatin on viability and drug resistance” value in experiment [6] is on record as “rendered cisplatin-resistant tumor cells almost completely sensitive”.
